# Test results reported in patent publication US20260284214A1, “EXATECAN DERIVATIVE AND ANTIBODY-DRUG CONJUGATE THEREOF” (priority 2023, published 2026).
# Read-outs that look alike come from different tables or passages of the source. Marks after values point to notes of the source that are not given here.
# Legend:
# [1] = tested on: SD rats; test: Toxicity comparison after repeated administration to SD rats for 7 days (hematology); type: in vivo; details: 0.1 mg/kg iv for 7 consecutive days, end of study
# Procedure: SD rats were taken as test animals to study toxic reactions after intravenous injection of the compounds of the present disclosure to male and female SD rats at a dosage of 0.1 mg/kg for 7 consecutive days.
# • Species: male and female SD rats (5 female rats and 5 male rats/group) • Grade: SPF grade • Weight: ♂ 252.0-287.4 g and ♀ 185.7-224.3 g • Age: 8-12 weeks • Source: Zhejiang Vital River Laboratory Animal Technology Co., Ltd.
# Male and female SD rats were injected with the test sample solution, and Compound 2 of the example and the Dxd were given in a dosage of 0.1 mg/kg and a dosage volume of 10 mL/kg.
# Preparation of test sample solution: the test sample was dissolved with a solvent (5% DMSO+95% Solutol HS-15 in water).
# About 0.2 mL of blood was collected from the jugular sinus of the animals into an anticoagulant tube containing an anticoagulant (EDTA-K2) on D3 after administration, and all to-be-dissected animals were fasted for about 12 hours on the eve of D8 before dissection. Dying animals were euthanized, about 2 mL of blood was collected from abdominal aorta into an anticoagulant tube containing an anticoagulant (EDTA-K2) at the time of dissection, and hematological indexes were detected by a Sysmex XN-1000 hemocytometer. Specific detection indexes were as follows.
# [2] = Metabolism stability test in liver microsomes; type: in vitro ADME; details: human liver microsomes; for CLint scaled / half-life / microsomal CLint: pH 7.4; for microsomal CLint: read-out: CLint(mic)
# Procedure: The experiment was intended to detect metabolic stabilities of the compounds in the present disclosure in human liver microsomes.
# • Human Liver Microsomes (Corning, Cat No. 452117)
# Experimental method: each incubation system contained a phosphate buffer solution (PBS, pH 7.4), a liver microsomal protein, a to-be-tested sample (acetonitrile solution) and NADPH, incubated in water bath at 37° C., and the same volume of cold acetonitrile (comprising an internal standard) was added 0, 5, 15, 30, 45 and 60 minutes after reaction respectively to terminate the reaction. The sample solution was centrifuged, 80 μL of the supernatant was taken and 240 μL of ultrapure water was added, and the remaining amount of the prototype substrate was detected by LC-MS/MS method. The negative control was incubated with a human liver microsome NCF group (without NADPH).
# [3] = tested on: FaDu cells; test: Cell inhibitory activity experiment of cytotoxic drug (CellTiter-Glo, 72 hours); type: cell-based, human
# Procedure: (§1) Human pancreatic adenocarcinoma cells BxPC-3 (ATCC, article number: CRL-1687) and human pharyngeal squamous cell carcinoma cells FaDu (ATCC, article number: HTB-43) were washed with PBS, then the cells were digested with 0.25% Trypsin-EDTA trypsin for about 3 minutes, and the digestion was terminated with a complete cell culture medium. The cells were centrifuged at 1000 rpm for 5 minutes, the supernatant was discarded, and the cells were resuspended with a complete cell culture medium, counted by a cell counter, and adjusted to a required density. Each well was added with 50 μL of the cell suspension according to 3000 cells per well, and the cell plate was placed into a 5% CO2 cell incubator at 37° C. to incubate the cells for 12-16 hours.
# (§2) The cell plate was taken out of the incubator to observe a cell adhesion state, and after cell adhesion, each well was added with 50 μL of the sample (starting from 10 μM, diluted 5 times, 9 concentrations), shaken gently, and then placed into an incubator to incubate the cells for 72 hours. Each well was added with a Cell Titer-GLO™ (Promega, article number: G7572) working solution according to 100 μL/well and shaken gently to lyse the cells, and the plate was read on a microplate reader.
# (§3) Data analysis: a graph was made by GraphPad Prism 7.0 software with a Log value of a sample concentration as an abscissa and Cytotoxicity % as an ordinate, and data were subjected to Nonlinear regression (curve fit) analysis to obtain an IC50 value of each compound.
# [4] = tested on: BxPC-3 cells; test: as above; type: cell-based, human
# Procedure: as §1, §2, §3
SMILES,"#MONO, change compared with the control group ([1]; ♀ SD rats)","#RETIC, change compared with the control group ([1]; ♀ SD rats)","HCT, change compared with the control group ([1]; ♀ SD rats)","HGB, change compared with the control group ([1]; ♀ SD rats)","RBC, change compared with the control group ([1]; ♀ SD rats)","#EOS, change compared with the control group ([1]; ♂ SD rats)","#MONO, change compared with the control group ([1]; ♂ SD rats)","#NEUT, change compared with the control group ([1]; ♂ SD rats)","#RETIC, change compared with the control group ([1]; ♂ SD rats)",CLint scaled [2],"half-life ([2]; NADPH, 37° C.)",microsomal CLint [2],also measured
CC[C@@]1(O)C(=O)OCc2c1cc1n(c2=O)Cc2c-1nc1cc(F)c(C)c3c1c2[C@@H](NC(=O)CO)CC3 [Dxd],−71.3%**,−96.9%**,−15.8%**,−12.7%**,−13.4%**,−70.2%*,−77.2%**,−66.9%**,−95.5%*,12.3 mL/min/kg,1.69 h,13.6 µL/min/mg,"#EOS, change compared with the control group ([1]; ♀ SD rats): −84.44%**; #LUC, change compared with the control group ([1]; ♀ SD rats): −66.9%**; #NEUT, change compared with the control group ([1]; ♀ SD rats): −66.1%*; MCHC, change compared with the control group ([1]; ♀ SD rats): 3.6%**; WBC, change compared with the control group ([1]; ♀ SD rats): −47.6%*; #BASO, change compared with the control group ([1]; ♂ SD rats): −82.1%*; HCT, change compared with the control group ([1]; ♂ SD rats): −15.7%**; HGB, change compared with the control group ([1]; ♂ SD rats): −12.8%**; MCHC, change compared with the control group ([1]; ♂ SD rats): 3.2%**; RBC, change compared with the control group ([1]; ♂ SD rats): −15.3%**"
C#CCN(CCO)C(=O)N[C@H]1CCc2c(C)c(F)cc3nc4c(c1c23)Cn1c-4cc2c(c1=O)COC(=O)[C@]2(O)CC [Example 2],−54.1%**,−86.4%**,−12.0%**,−10.7%**,−10.9%**,−71.4%**,−68.3%**,−72.2%**,−87.3%**,,,,"IC50 [3]: 1.49 nM; IC50 [4]: 0.96 nM; CLint(liver) [2]: 20.0 mL/min/kg; CLint(mic) [2]: 22.2 µL/min/mg; T1/2 ([2]; NADPH, 37° C.): 1.04 h"
"C=CCN(CCO)C(=O)N[C@H]1CCc2c(C)c(F)cc3nc4c(c1c23)Cn1c-4cc2c(c1=O)COC(=O)[C@]2(O)CC [Example 3, 1-allyl-3-((1S,9S)-9-ethyl-5-fluoro-9-hydroxy-4-methyl-10,13-dioxo-2,3,9,10,13,15-hexahydro-1H,12H-benzo[de]pyrano[3′,4′:6,7]indolizino[1,2-b]quinolin-1-yl)-1-(2-hydroxyethyl)urea]",,,,,,,,,,23.7 mL/min/kg,0.877 h,26.4 µL/min/mg,IC50 ([3]; Homo sapiens): 1.09 nM; IC50 ([4]; Homo sapiens): 0.76 nM
